Paper PMC13179060, “The role of ATP synthase subunit e (ATP5I) in mediating the metabolic and antiproliferative effects of metformin in cancer cells” (eLife, 2026)

T1: ATP synthase subunit e (ATP5I) (Homo sapiens, UniProt P56385)
T1 construct: gene ATP5ME; full-length human ATP5I, N-terminal 6x-His-tagged, expressed in E. coli (mainly oligomers, mostly decamers)
T1 sequence (P56385 1-69): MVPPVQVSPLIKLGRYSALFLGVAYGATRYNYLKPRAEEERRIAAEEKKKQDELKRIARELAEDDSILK


Assays:
[1] = biological target: T1, ATP synthase subunit e (ATP5I); assay: SPR, BFB immobilized on streptavidin chip, recombinant ATP5I as analyte, steady-state fit; supported by streptavidin pull-down and immunoblot; type: binding
[2] = biological target: the molecule itself; assay: SEC; gel filtration of purified rATP5I (legend: Superose 12 10/300 GL for the profile, Superose 6 10/300 GL for the calibration with thyroglobulin, γ-globulin, myoglobin and vitamin B12)

| Kd [1] [µM] | Molecule | stoichiometry N [2] |
| --- | --- | --- |
| ~11.1 | N=C(N)NC(=N)NCCCCCCNC(=O)CCCCC1SCC2NC(=O)NC21 (centres unmarked) [compound 3, BFB] | – |
| – | N-terminal 6x-His-tagged ATP5I (ATP synthase subunit e), recombinant (natural protein, human, UniProt P56385 1-69, looked up, The vector is pET-TEV; The protein was extracted under denaturing conditions and brought back into native buffer on the column; also called rATP5I; recombinant ATP5I; not shown: His6, N-terminal, kept) MVPPVQVSPLIKLGRYSALFLGVAYGATRYNYLKPRAEEERRIAAEEKKKQDELKRIARELAEDDSILK | 10 |
